Laboratory results published in patent US20130004579A1, “Use of Plant Lectins to Target Leukocytes” (priority 2011, published 2013).

Tests used:
[1] = tested on: Bone marrow-derived macrophages (iBMMs); assay: Flow cytometry uptake of lectin-conjugated NR-PS particles by live iBMMs (Example 6); assay type: cell-based; conditions: 10 minute incubation; lectin 100 μg/ml
Method: (§1) C57BL/6 BMDCs and iBMMs were isolated and cultured as described above at a density of 1×10^6 cells/ml in a 96 well U-bottomed plate in 100 μl complete RPMI 1640 medium with 10 ng/ml GM-CSF. Cells were stimulated for 10 or 30 minutes at 37° C. with NR-PS particles (5, 50 or 100 μg/ml) or NR-PS particles (5, 50 or 100 μg/ml) conjugated with biotinylated UEA-1 (100 μg/ml), biotinylated SBA (100 μg/ml), biotinylated PHA-E (100 μg/ml), biotinylated PHA-L (100 μg/ml) or biotinylated DSL (100 μg/ml). Cells were then scraped into FACS tubes, washed in FACS buffer, centrifuged at 1200 rpm for 5 minutes (×3) and resuspended in 200 μl of FACS buffer.
(§2) A FACSCanto™ II flow cytometer (BD Biosciences, San Jose, Calif.), FACSDiva™ software (BD Biosciences, San Jose, Calif.) and FlowJo™ software (Treestar, Inc., Ashland, Oreg.) were used to analyze the uptake of particles by various cell populations. Live cells were gated on by their FSC and SSC properties in order to estimate the degree of cell death. Particle uptake was quantified by determining the percentage of live cells taking up particles. Unstimulated cells were used as controls.

[2] = tested on: C57BL/6 splenocytes, granulocytes (Gr1+); assay: Lectin-conjugated NR-PS particle uptake by splenocyte populations (Example 8): granulocytes; assay type: cell-based, mouse; conditions: lectin 100 μg/ml; live cells
Method: (§3) Splenocytes were isolated from C57BL/6 mice and cultured as described above, at a density of 2×10^6 cells/ml in a 96 well U-bottomed plate, in 100 μl of complete RPMI 1640 medium. Cells were incubated for 5, 10 or 30 minutes at 37° C. with NR-PS particles (5, 50 or 100 μg/ml) or NR-PS particles (5, 50 or 100 μg/ml) conjugated with biotinylated UEA-1 (100 μg/ml), biotinylated SBA (100 μg/ml), biotinylated PHA-E ([…]), biotinylated PHA-L (100 μg/ml) or biotinylated DSL (100 μg/ml). Cells were transferred to FACS tubes, washed in FACS buffer, centrifuged at 1200 rpm for 5 minutes (×3) and resuspended in 100 μl FACS buffer. Cells were then incubated with Fc Block™ (2.5 μg/ml; BD Pharmingen, San Diego, Calif.) for 10 minutes. Determination of cell types was achieved by labelling characteristic cell surface markers with fluorescently-labelled antibodies—T cells were determined as being CD3^+, dendritic cells CD11c^+, macrophages F4/80^+, granulocytes Gr1^+ and B cells CD19^+. Cells were incubated on ice for 30 minutes in the dark and then washed in FACS buffer and centrifuged at 1200 rpm for 5 minutes (×3). After washing, cells were resuspended in 200 μl of FACS buffer.
(§4) A CyAn™ ADP flow cytometer (Beckman Coulter, Inc., Miami, Fla.), Summit™ software (Dako North America, Inc., Carpinteria, Calif.) and FlowJo™ software (Treestar, Inc., Ashland, Oreg.) were used to analyze the uptake of particles by various cells populations. Live cells were gated on by their FSC and SSC properties in order to roughly estimate the degree of cell death. Particle uptake was calculated for each cell subtype from the data in FIGS. 11A-11D, showing the percentages of both cell marker- and particle-positive cells within the live cell population. Unstimulated cells were used as controls.

[3] = tested on: C57BL/6 splenocytes, B cells (CD19+); assay: Lectin-conjugated NR-PS particle uptake by splenocyte populations (Example 8): B cells; assay type: cell-based, mouse; conditions: lectin 100 μg/ml; live cells
Method: as §3, §4

[4] = tested on: C57BL/6 splenocytes, T cells (CD3+); assay: Lectin-conjugated NR-PS particle uptake by splenocyte populations (Example 8): T cells; assay type: cell-based, mouse; conditions: lectin 100 μg/ml; live cells
Method: as §3, §4

[5] = tested on: C57BL/6 splenocytes, macrophages (F4/80+); assay: Lectin-conjugated NR-PS particle uptake by splenocyte populations (Example 8): macrophages; assay type: cell-based, mouse; conditions: lectin 100 μg/ml; live cells
Method: as §3, §4

[6] = tested on: C57BL/6 splenocytes, dendritic cells (CD11c+); assay: Lectin-conjugated NR-PS particle uptake by splenocyte populations (Example 8): dendritic cells; assay type: cell-based, mouse; conditions: lectin 100 μg/ml; live cells
Method: as §3, §4

C57BL/6 BMDCs = assay: Flow cytometry uptake of lectin-conjugated NR-PS particles by live BMDCs (Example 6); assay type: cell-based, mouse; conditions: 30 minute incubation; lectin 100 μg/ml
Method: as §1, §2

[7] = tested on: IL-1α production by bone marrow-derived dendritic cells (BMDCs); assay: IL-1α ELISA on supernatants of BMDCs incubated with particles; assay type: cell-based, mouse; conditions: C57BL/6 BMDCs; LPS 1 ng/ml; serial dilutions SC-PS 31.25 μg/ml to 1 mg/ml with lectin 1.56 to 50 μg/ml; vs unconjugated SC-PS
Method: (§5) BMDCs were isolated and cultured as described in Example 2 at a density of 6.25×10^5 cells/ml in 96 well U-bottomed microplates. Cells were stimulated with a Toll-like receptor (TLR) ligand (LPS or Pam2CSK4) for 6 hours. Cells were then incubated with either medium, alum/SC-PS particles, alum/SC-PS particles conjugated with UEA-1, alum/SC-PS particles conjugated with UEA-1 mimetic or with UEA-1 alone for 24 hours. After incubation, supernatants from BMDCs were collected and cytokine concentrations measured by ELISA. Antibody pairs specific for each cytokine were used for immunoassaying. The following cytokines were measured by immunoassay: IL-1α, IL-1β.
(§6) Capture antibodies were obtained from BD Pharmingen (San Diego, Calif.), BioLegend (San Diego, Calif.) and R&D Systems, Inc. (Minneapolis, Minn.) and prepared according to the manufacturer's specifications (see Table 2) and a volume of 40 μl/well added to high-binding 96 well ELISA plates. Plates were then incubated for 2 hours at 37° C. or overnight at 4° C. After incubation, plates were washed in PBS-T (×3) and tapped dry. Plates were then blocked with the appropriate blocking solution (see Table 2) and incubated for 2 hours at 37° C. After incubation plates were washed in PBS-T (×3) and tapped dry. Supernatants were transferred from cell culture plates to fresh 96 well plates. All supernatants were stored at −20° C. when not in use. Cell supernatants were applied to plates at the indicated dilutions (see Table 2). A blank triplicate was left on each plate containing the diluent as a blank. Standards were prepared at the starting concentration in the recommended diluent as specified by the manufacturer and transferred to a 96 well plate and serial dilutions (1:2) performed (see Table 2). All standards and samples were applied to plates at 40 μl/well total volume for incubation overnight at 4° C. After incubation plates were washed with PBS-T (×5) and tapped dry. […] Plates were then stopped by the addition of 20 μl/well of 1M H2SO4 and read. […]

[8] = tested on: IL-1β production by bone marrow-derived dendritic cells (BMDCs); assay: IL-1β ELISA on supernatants of BMDCs incubated with particles; assay type: cell-based, mouse; conditions: C57BL/6 BMDCs; LPS 1 ng/ml; serial dilutions SC-PS 31.25 μg/ml to 1 mg/ml with lectin 1.56 to 50 μg/ml; vs unconjugated SC-PS
Method: as §5, §6

| Molecule | percentage of live iBMMs found to have taken up particles [1] [%] | percentage of granulocytes found to have taken up particles [2] [%] | percentage of B cells found to have taken up particles [3] [%] | percentage of T cells found to have taken up particles [4] [%] | percentage of macrophages found to have taken up particles [5] [%] | percentage of dendritic cells found to have taken up particles [6] [%] | percentage of live BMDCs found to have taken up particles (C57BL/6 BMDCs) [%] | TLR-4 agonist-primed IL-1α production [7] | TLR-4 agonist-primed IL-1β production [8] |
| --- | --- | --- | --- | --- | --- | --- | --- | --- | --- |
| NR-PS particles conjugated with biotinylated PHA-E: Nile Red streptavidin-coated polystyrene particles conjugated with biotinylated Phaseolus vulgaris erthyroagglutinin | 91.0 | 74.0 | 45.5 | 18.1 | 79.4 | 67.7 | 89.7 | – | – |
| NR-PS particles conjugated with biotinylated PHA-L: Nile Red streptavidin-coated polystyrene particles conjugated with biotinylated Phaseolus vulgaris leukoagglutinin | 79.6 | 80.7 | 80.5 | 62.4 | 89.9 | 79.0 | 89.6 | – | – |
| NR-PS particles conjugated with biotinylated SBA: Nile Red streptavidin-coated polystyrene particles conjugated with biotinylated soybean agglutinin | 93.4 | 65.6 | 70.8 | 6.4 | 84.8 | 56.3 | 83.2 | – | – |
| PNA: SC-PS particles conjugated with biotinylated peanut agglutinin (conjugate, UniProt P02872 24-273, looked up, biotinylated, on streptavidin polystyrene particles, SC-PS particles conjugated with biotinylated peanut agglutinin) Galactose-binding lectin: AETVSFNFNSFSEGNPAINFQGDVTVLSNGNIQLTNLNKVNSVGRVLYAMPVRIWSSATGNVASFLTSFSFEMKDIKDYDPADGIIFFIAPEDTQIPAGSIGGGTLGVSDTKGAGHFVGVEFDTYSNSEYNDPPTDHVGIDVNSVDSVKTVPWNSVSGAVVKVTVIYDSSTKTLSVAVTNDNGDITTIAQVVDLKAKLPERVKFGFSASGSLGGRQIHLIRSWSFTSTLITTTRRSIDNNEKKIMNMASA | – | – | – | – | – | – | – | increased IL-1α production across all five of the serial dilutions | increased |
